According to patent US6528042B1, “Compositions of flavonoids for use as cytoprotectants and methods of making and using them” (Galileo Laboratories, Inc., priority 1999, dated 2003):

Legend:
[1] = system: Oxidatively competent cells; assay: SYTOX cell death assay in oxidatively competent cells treated with antimycin A; format: cell-based
Description: Oxidatively competent cells are prepared as described in Example 1. and Example 2.A and are seeded onto 96-well plates at 1×10^3/well or 2.5×10^3/well as passage 15. The cells are grown in DMEM with 10% FBS and 1.5 g/L sodium bicarbonate for 24 or 48 hours to reach 85% confluence. The cells are washed once with HBSS and then 100 μl of HBSS containing different concentration of AA (Sigma, Cat #A 8674) is added to the cells. AA is dissolved in DMSO to make a stock solution of 50 mM, then diluted with HBSS to 25, 12.5, 6.25, 3.125, and 1.56 μM for dose-response curves. The cells, with or without AA, are incubated at 37° C. in a 5% CO2 humidified incubator for 1 to 5 hours. The concentration of AA is chosen to induce 75% or 100% cell death as a screening dose to test the effect of agents to protect against AA- induced cell toxicity. The concentration of agents used for screening will be dependent upon the agents. Certain control groups contain 100 μl of HBSS only.
(§1) SYTOX Green nucleic acid stain is a high-affinity nucleic acid stain that easily penetrates cells with a compromised plasma membrane but will not cross the membrane of live cells. The nucleic acids of dead cells fluoresce bright green at 524 nm when excited with the 488 nm spectral source or with any other 450-500 nm source. […] In the cell viability assay chemical ischemia is created in cells and then cells are incubated with the SYTOX dye. The compound antimycin is used to simulate ischemia at the same time as stimulating the cells with forskolin. […] The assay is performed on cells grown in 96-well format allowing high throughput screening of compounds.
(§2) Compound(s) are mixed with the 1 μM SYTOX working solution and added to the washed cell culture wells. Fluorescence is measured at designated time points (488 nm excitation and 530 nm emission). All of the sample readings subtract the background readings, which is cell-free wells only containing HBSS buffer with SYTOX green dye. The data is compared to non-treated cells (control) and is expressed as mean±S.D. from 4 culture wells. SYTOX Green fluorescence units obtained from each group are corrected for basal fluorescence (cell-free wells with only HBSS and fluorescence reagent). Data are represented as mean±SD. A paired t-test is performed comparing treated groups (Toxin+Agent) with non-treated groups (Toxin only) after subtracting the control groups (HBSS only) for each data set. Comparisons among groups are statistically evaluated by two-tailed t-test (Graphpad Prism Software, version 2.0). Differences are considered significant at P<0.05.
Oxidatively competent cells were treated simultaneously with hesperetin, chrysin and 100 nM antimycin A2.C. The cells were treated with various low concentrations of hesperetin and various concentrations of chrysin (Sigma Chemical Co., cat. #C3018). Hesperetin, chrysin and antimycin A were mixed together before treating the cells. Cell viability was measured at time points up to 5 hours using SYTOX, as described in Example 2.F.
In experiments carried out in support of the invention, various concentrations of diosmin and alpha-tocopherol were tested for synergistic ability to ameliorate disruption of energy metabolism secondary to stress. Oxidatively competent cells were treated simultaneously with diosmin, alpha-tocopherol and antimycin A2.C. The cells were treated with various low concentrations of diosmin (Sigma Chemical Co., cat. #D3525) and various low concentrations of (+/−) alpha-tocopherol. Diosmin, alpha-tocopherol and antimycin were mixed together before treating cells. Cell viability was measured 4 hours after treatment using SYTOX. […] Likewise, the combination of disomin (11-100 μM) with 1.1 μg/ml (+/−) alpha tocopherol was synergistic. […] Diosmin alone provided no protection at a concentration of 100 μM. […] A combination of 100 μM diosmin and 11 μg/ml (+/−) alpha tocopherol was also synergistic. […]

[2] = cited from earlier work
[3] = system: GCL1 cells; assay: SYTOX cell death assay in GCL1 cells treated with antimycin A (chemical ischemia); format: cell-based, rat hepatoma cells (fao) / human fibroblasts (W138) hybrid
Source text: At greater than 80% confluence, more than 80% of the cells participate in forming one or more phaselucent, spherical structures that are located between cells, termed bile canicular-like spaces. In contrast to the majority of cell lines maintained in culture which are fermentative, GCL1 cells, when at their maximal density and polarity, are highly oxidative (i.e., they can be readily killed by inhibitors of oxidative phosphorylation or electron transport uncouplers). […] These cells are amenable to use in high throughput screening (HTS) technology.
The cells, with or without AA, are incubated at 37° C. in a 5% CO2 humidified incubator for 1 to 5 hours. […] The concentration of agents used for screening will be dependent upon the agents. Certain control groups contain 100 μl of HBSS only.
as §1
Aliquot at 100 μl. This 10 mM stock is then diluted to 1 mM with DMSO and aliquoted at 25 μL. Both the 10 mM and the 1 mM are stored at −20° C. until use. […] Aliquot at 100 μl and store at −20° C. until use. iv.) HBSS-SYTOX-FORSKOLIN-ANTIMYCIN (H-S-F-A) solution: H-S-F-A solution is made up fresh prior to each assay in sterile 175 ml or 225 ml Falcon bottles. […]
Cells are grown in 96-well black plates (with or without clear bottoms) at a density of 1000 cells per well for 24 hours. The necessary number of 96-well plates containing the specific cell type are obtained and placed in the laminar flow safety cabinet. A sterile microtiter basin is filled with the appropriate volume of pre-warmed 1×HBSS. Using aseptic technique and an 8-channel aspirator, the media is carefully removed from the cells and replaced with 200 μl of 1×HBSS. This is done as quickly as possible to prevent the cells drying out. The plates are then placed in the humidified 37° C. incubators of the Biomek 2000 Side Loader. Four plates are washed at a time so as to minimize the time that the cells are sitting in 1×HBSS prior to addition of the H-S-A-compound test solution.
as §2
Hesperetin, diosmin, luteolin and quercetin were tested individually for their ability to counteract disruptions of normal energy metabolism. Flavonoids were commercially obtained, generally from Sigma Chemical Co., St. Louis, Mo., and/or Aldrich Chemical Co., Milwaukee, Wis.

[4] = 25 μM hesperetin alone, 4 hours, control cell death 82.9%

COc1ccc([C@@H]2CC(=O)c3c(O)cc(O)cc3O2)cc1O [Hesperetin, (S)-2,3-dihydro-5,7-dihydroxy-2-(3-hydroxy-4-methoxyphenyl)-4H-1-benzopyran-4-one]
Cell Death ([1]; 50 μM hesperetin alone, control 72.9%): 73.4% | protection when tested separately ([1]; 2 and 50 μM hesperetin, four hours): generally ineffective | abnormalities observed for a week ([2]; administered orally to mice at 100 mg/kg (U.S. Pat. No. 5,650,433)): no abnormalities were observed | effects on liver function ([2]; tests using mice): no adverse effects on liver function | toxicity or mitogenicity ([2]; tests using mice): little toxicity or mitogenicity | Cell Death [3, 4]: 81.1% | reduction in cell death [3, 4]: 1.8% | protection ([3]; 50 μM Hesperetin alone): 14.4% | Cell Death ([3]; 50 μM Hesperetin alone, 4 hours, control 82.1%): 81.3% | Cell Death ([3]; 50 μM hesperetin alone, 4 hours, control 97.4%): 92.6% | protection above control level ([3]; 75 μM Hesperetin by itself): 7.5% | Cell Death ([3]; Hesperetin 1.9 μM, antimycin A 100 nM, time 0:00 hr:min): 0.0% ± 0.0 | Cell Death ([3]; Hesperetin 1.9 μM, antimycin A 100 nM, time 1:45 hr:min): 0.5% ± 0.6 | Cell Death ([3]; Hesperetin 1.9 μM, antimycin A 100 nM, time 2:45 hr:min): 30.4% ± 3.3 | Cell Death ([3]; Hesperetin 1.9 μM, antimycin A 100 nM, time 3:45 hr:min): 66.0% ± 3.1 | Cell Death ([3]; Hesperetin 1.9 μM, antimycin A 100 nM, time 4:45 hr:min): 81.5% ± 1.4 | Cell Death ([3]; Hesperetin 6 μM, antimycin A 100 nM, time 0:00 hr:min): 0.0% ± 0.0 | Cell Death ([3]; Hesperetin 6 μM, antimycin A 100 nM, time 1:45 hr:min): 1.8% ± 0.8 | Cell Death ([3]; Hesperetin 6 μM, antimycin A 100 nM, time 2:45 hr:min): 28.4% ± 1.5 | Cell Death ([3]; Hesperetin 6 μM, antimycin A 100 nM, time 3:45 hr:min): 65.0% ± 1.5 | Cell Death ([3]; Hesperetin 6 μM, antimycin A 100 nM, time 4:45 hr:min): 81.8% ± 0.7 | Cell Death ([3]; Hesperetin 17 μM, antimycin A 100 nM, time 0:00 hr:min): 0.0% ± 0.0 | Cell Death ([3]; Hesperetin 17 μM, antimycin A 100 nM, time 2:45 hr:min): 27.2% ± 2.0 | Cell Death ([3]; Hesperetin 17 μM, antimycin A 100 nM, time 3:45 hr:min): 64.1% ± 0.6 | Cell Death ([3]; Hesperetin 17 μM, antimycin A 100 nM, time 4:45 hr:min): 80.3% ± 1.0 | Cell Death ([3]; Hesperetin 50 μM, antimycin A 100 nM, time 0:00 hr:min): 0.0% ± 0.0 | Cell Death ([3]; Hesperetin 50 μM, antimycin A 100 nM, time 1:45 hr:min): 2.3% ± 0.3 | Cell Death ([3]; Hesperetin 50 μM, antimycin A 100 nM, time 2:45 hr:min): 14.4% ± 2.2 | Cell Death ([3]; Hesperetin 50 μM, antimycin A 100 nM, time 3:45 hr:min): 53.1% ± 5.7 | Cell Death ([3]; Hesperetin 50 μM, antimycin A 100 nM, time 4:45 hr:min): 74.0% ± 6.2 | protective effect ([3]; concentrations of 50 μM and below): little, if any, protective effect
